# Results: ChEMBL document CHEMBL2074088, “Trans-stimulation effects of folic acid derivatives on methotrexate transport by rat renal organic anion transporter, OAT-K1” (J Pharmacol Exp Ther, 2000)
# Molecular target: T1, Solute carrier organic anion transporter family member 1A3 (Rattus norvegicus, UniProt P70502)
# T1 sequence (P70502 whole entry): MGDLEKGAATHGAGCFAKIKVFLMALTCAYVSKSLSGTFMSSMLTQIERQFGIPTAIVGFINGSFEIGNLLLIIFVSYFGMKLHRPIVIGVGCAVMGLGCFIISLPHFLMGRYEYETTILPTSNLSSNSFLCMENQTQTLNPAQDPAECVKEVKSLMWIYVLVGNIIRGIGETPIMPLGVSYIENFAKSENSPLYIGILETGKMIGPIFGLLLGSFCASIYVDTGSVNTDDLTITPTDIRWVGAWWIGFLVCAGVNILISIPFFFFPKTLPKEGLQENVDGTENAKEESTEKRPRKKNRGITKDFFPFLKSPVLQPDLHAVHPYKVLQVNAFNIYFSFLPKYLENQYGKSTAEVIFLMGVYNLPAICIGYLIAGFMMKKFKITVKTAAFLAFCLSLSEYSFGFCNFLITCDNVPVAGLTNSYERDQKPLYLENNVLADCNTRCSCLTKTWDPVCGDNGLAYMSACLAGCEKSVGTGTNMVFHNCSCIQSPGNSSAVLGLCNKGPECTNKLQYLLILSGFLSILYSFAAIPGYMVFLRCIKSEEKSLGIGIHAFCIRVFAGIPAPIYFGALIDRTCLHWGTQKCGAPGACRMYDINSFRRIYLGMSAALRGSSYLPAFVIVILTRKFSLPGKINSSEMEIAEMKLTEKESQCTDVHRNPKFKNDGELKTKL
# Test: TP_TRANSPORTER: inhibition of MTX uptake in OAT-K1-expressing MDCK cells
# Format: functional, cell-based
row,Compound,Ki
1,Nc1nc(N)c2nc(CNc3ccc(C(=O)N[C@@H](CCC(=O)O)C(=O)O)cc3)cnc2n1 [AMINOPTERIN],0.5 µM
2,O=C1OC(c2ccc(O)c(S(=O)(=O)O)c2)(c2ccc(O)c(S(=O)(=O)O)c2)c2c(Br)c(Br)c(Br)c(Br)c21 [SULFOBROMOPHTHALEIN SODIUM],21 µM
3,CN1c2c(nc(N)[nH]c2=O)NC[C@@H]1CNc1ccc(C(=O)N[C@@H](CCC(=O)O)C(=O)O)cc1 [LEVOMEFOLIC ACID],1.2 µM
4,Nc1nc2c(c(=O)[nH]1)N(C=O)C(CNc1ccc(C(=O)N[C@@H](CCC(=O)O)C(=O)O)cc1)CN2 (stereo not given in full) [LEUCOVORIN],8.2 µM
5,Nc1nc2ncc(CNc3ccc(C(=O)N[C@@H](CCC(=O)O)C(=O)O)cc3)nc2c(=O)[nH]1 [FOLIC ACID],14.1 µM
